Data as given in patent US8710043B2, “TRPM8 antagonists and their use in treatments” (Amgen Inc., priority 2011, dated 2014).
Where a name gives a salt, the structure may show the parent alone.

The molecules below were run against T1, human TRPM8 (Homo sapiens, UniProt Q7Z2W7) (assay: Luminescence readout assay for measuring intracellular calcium, icilin activation). Conditions: CHO cells expressing human TRPM8, aequorin luminescence, 1 μM icilin activation; read-out: hTRPM8 IC50.
T1 construct: expressed in transfected cells; host or cells: Chinese hamster ovary (CHO) cells, T-REx tetracycline-inducible system, co-transfected with aequorin
Type: cell-based
Outline: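 The read-out was luminescence reporting intracellular calcium, recorded by a CCD-based luminometer. Compounds were preincubated for 2.5 min before agonist challenge with 1 μM icilin. Human TRPM8 was expressed in a stable T-REx CHO line, induced with 0.5 μg/mL tetracycline the day before.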

T1 sequence (Q7Z2W7 whole entry): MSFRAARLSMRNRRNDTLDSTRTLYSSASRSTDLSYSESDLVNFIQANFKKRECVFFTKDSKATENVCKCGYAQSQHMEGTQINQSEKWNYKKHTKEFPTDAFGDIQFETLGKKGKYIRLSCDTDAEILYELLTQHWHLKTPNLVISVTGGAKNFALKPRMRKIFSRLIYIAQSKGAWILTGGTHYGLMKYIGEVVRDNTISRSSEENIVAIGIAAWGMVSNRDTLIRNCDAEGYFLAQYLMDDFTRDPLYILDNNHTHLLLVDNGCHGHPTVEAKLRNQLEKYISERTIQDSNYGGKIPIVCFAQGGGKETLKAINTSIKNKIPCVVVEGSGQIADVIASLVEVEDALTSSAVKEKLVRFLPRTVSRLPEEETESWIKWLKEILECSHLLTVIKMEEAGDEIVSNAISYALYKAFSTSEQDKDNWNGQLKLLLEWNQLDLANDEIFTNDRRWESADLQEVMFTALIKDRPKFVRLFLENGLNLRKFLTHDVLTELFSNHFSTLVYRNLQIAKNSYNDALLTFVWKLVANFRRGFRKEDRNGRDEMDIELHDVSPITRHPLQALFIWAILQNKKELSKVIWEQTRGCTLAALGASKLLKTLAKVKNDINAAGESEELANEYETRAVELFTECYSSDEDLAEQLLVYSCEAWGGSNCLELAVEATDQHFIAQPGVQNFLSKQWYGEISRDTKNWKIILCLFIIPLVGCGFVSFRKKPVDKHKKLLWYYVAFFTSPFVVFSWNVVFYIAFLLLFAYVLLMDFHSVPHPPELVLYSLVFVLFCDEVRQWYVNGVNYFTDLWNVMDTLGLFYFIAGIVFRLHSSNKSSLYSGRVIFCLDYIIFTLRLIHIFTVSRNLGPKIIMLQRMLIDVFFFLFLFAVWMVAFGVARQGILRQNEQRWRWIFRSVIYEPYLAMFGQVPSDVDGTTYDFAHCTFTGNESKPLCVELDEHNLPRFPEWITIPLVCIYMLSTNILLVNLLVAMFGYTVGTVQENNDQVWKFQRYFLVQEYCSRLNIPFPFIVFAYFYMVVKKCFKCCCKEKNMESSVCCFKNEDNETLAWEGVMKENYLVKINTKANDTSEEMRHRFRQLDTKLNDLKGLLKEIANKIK

Structure (SMILES)	IC50 [nM]
O=C(N[C@@H](c1ccc(C(F)(F)F)cc1)c1ncccc1C(F)(F)F)c1cnc2ccccc2c1 [Example 230, (S)-N-((4-(trifluoromethyl)phenyl)(3-(trifluoromethyl)pyridin-2-yl)methyl)quinoline-3-carboxamide]	83.7
O=C(N[C@@H](c1ccc(C(F)(F)F)cc1)c1ncccc1C(F)(F)F)c1ccc(OC(F)(F)F)cc1 [Example 231, (S)-4-(trifluoromethoxy)-N-((4-(trifluoromethyl)phenyl)(3-(trifluoromethyl)pyridin-2-yl)methyl)benzamide]	461
CC1(C)C[C@H]1c1cccnc1[C@@H](NC(=O)c1ccc2ncccc2c1)c1ccc(C(F)(F)F)cc1 [Example 233, N-((S)-(3-((R)-2,2-dimethylcyclopropyl)pyridin-2-yl)(4-(trifluoromethyl)phenyl)methyl)quinoline-6-carboxamide]	83.1
COC(C)(C)C(=O)N[C@@H](c1ccc(C(F)(F)F)cc1)c1ncccc1C(F)(F)F [Example 240, (S)-2-methoxy-2-methyl-N-((4-(trifluoromethyl)phenyl)(3-(trifluoromethyl)pyridin-2-yl)methyl)propanamide]	81
O=C(N[C@@H](c1ccc(C(F)(F)F)cc1)c1ncccc1C(F)(F)F)C1CCC(O)CC1 (stereo partly drawn) [Example 242, (S)-4-hydroxy-N-((4-(trifluoromethyl)phenyl)(3-(trifluoromethyl)pyridin-2-yl)methyl)cyclohexanecarboxamide]	1030
Cn1cc(C(=O)N[C@@H](c2ccc(C(F)(F)F)cc2)c2ncccc2Cl)ccc1=O [Example 249, (S)-N-((3-chloropyridin-2-yl)(4-(trifluoromethyl)phenyl)methyl)-1-methyl-6-oxo-1,6-dihydropyridine-3-carboxamide 2,2,2-trifluoroacetate]	13.2
O=C(N[C@@H](c1ccc(Cl)c(Cl)c1)c1ncccc1F)c1ccc(=O)[nH]c1 [Example 250, (S)-N-((3,4-dichlorophenyl)(3-fluoropyridin-2-yl)methyl)-6-oxo-1,6-dihydropyridine-3-carboxamide 2,2,2-trifluoroacetate]	19.2
Cn1cc(C(=O)N[C@@H](c2ccc(Cl)c(Cl)c2)c2ncccc2F)ccc1=O [Example 251, (S)-N-((3,4-dichlorophenyl)(3-fluoropyridin-2-yl)methyl)-1-methyl-6-oxo-1,6-dihydropyridine-3-carboxamide 2,2,2-trifluoroacetate]	19.3
O=C(N[C@@H](c1ccc(C(F)(F)F)cc1)c1ncccc1C(F)(F)F)c1ccc2nccn2c1 [Example 254, (S)-N-((4-(trifluoromethyl)phenyl)(3-(trifluoromethyl)pyridin-2-yl)methyl)imidazo[1,2-a]pyridine-6-carboxamide 2,2,2-trifluoroacetate]	11.8
O=C(N[C@@H](c1ccc(C(F)(F)F)c(F)c1)c1ccccc1C(F)(F)F)c1ccc2ncccc2c1 [Example 257, (S)-N-((3-fluoro-4-(trifluoromethyl)phenyl)(2-(trifluoromethyl)phenyl)methyl)quinoline-6-carboxamide]	109
O=C(N[C@@H](c1ccc(C(F)(F)F)cc1)c1c(F)cccc1F)c1ccc(=O)[nH]c1 [Example 258, (S)-N-((2,6-difluorophenyl)(4-(trifluoromethyl)phenyl)methyl)-6-oxo-1,6-dihydropyridine-3-carboxamide]	40.7
O=C(N[C@@H](c1ccc(C(F)(F)F)cc1)c1cnccc1C(F)(F)F)c1ccc2ncccc2c1 [Example 260, (S)-N-((4-(trifluoromethyl)phenyl)(4-(trifluoromethyl)pyridin-3-yl)methyl)quinoline-6-carboxamide bis (2,2,2-trifluoroacetate)]	311
O=C(N[C@@H](C#Cc1ccccc1)c1ncccc1C(F)(F)F)c1ccc2cccnc2c1 [Example 261, (S)-N-(3-phenyl-1-(3-(trifluoromethyl)pyridin-2-yl)prop-2-yn-1-yl)quinoline-7-carboxamide]	375

Continued by falling IC50, values first:

IC50 [nM]	Structure (SMILES)
3380	O=C(O)C1CCC(C(=O)N[C@@H](c2ccc(C(F)(F)F)cc2)c2ncccc2C(F)(F)F)CC1 (stereo partly drawn) [Example 244, (S)-4-(((4-(trifluoromethyl)phenyl)(3-(trifluoromethyl)pyridin-2-yl)methyl)carbamoyl)cyclohexanecarboxylic acid]
1440	CC(C)(C(=O)O)C(=O)N[C@@H](c1ccc(C(F)(F)F)cc1)c1ncccc1C(F)(F)F [Example 243, (S)-2,2-dimethyl-3-oxo-3-(((4-(trifluoromethyl)phenyl)(3-(trifluoromethyl)pyridin-2-yl)methyl)amino)propanoic acid]
733	CO[C@@](C(=O)N[C@@H](c1ccc(C(F)(F)F)cc1)c1ncccc1C(F)(F)F)(c1ccccc1)C(F)(F)F [Example 237, 3,3,3-trifluoro-2-methoxy-2-phenyl-N-((S)-(4-(trifluoromethyl)phenyl)(3-(trifluoromethyl)pyridin-2-yl)methyl)propanamide]
590	O=C(N[C@@H](c1ccc(C(F)(F)F)cc1)c1ncccc1C(F)(F)F)[C@H]1CC[C@@H](CO)CC1 [Example 241, (1s,4R)-4-(hydroxymethyl)-N-((S)-(4-(trifluoromethyl)phenyl)(3-(trifluoromethyl)pyridin-2-yl)methyl)cyclohexanecarboxamide]
547	O=C(Cc1cccnc1)N[C@@H](c1ccc(C(F)(F)F)cc1)c1ncccc1C(F)(F)F [Example 238, (S)-2-(pyridin-3-yl)-N-((4-(trifluoromethyl)phenyl)(3-(trifluoromethyl)pyridin-2-yl)methyl)acetamide]
302	O=C(N[C@@H](c1ccc(C(F)(F)F)cc1)c1ccccc1Br)c1ccc2ncccc2c1 [Example 256, (S)-N-((2-bromophenyl)(4-(trifluoromethyl)phenyl)methyl)quinoline-6-carboxamide 2,2,2-trifluoro acetate, 2,2,2-trifluoroacetate]
239	CC(C)(C)Cc1cccnc1[C@@H](NC(=O)c1ccc2ncccc2c1)c1ccc(C(F)(F)F)cc1 [Example 236, (S)-N-((3-neopentylpyridin-2-yl)(4-(trifluoromethyl)phenyl)methyl)quinoline-6-carboxamide]
226	C=CCc1cccnc1[C@@H](NC(=O)[C@@H](C)c1ccccc1)c1ccc(C(F)(F)F)cc1 [Example 235, (S)-N-((S)-(3-allylpyridin-2-yl)(4-(trifluoromethyl)phenyl)methyl)-2-phenylpropanamide]
210	O=C(N[C@@H](c1ccc(C(F)(F)F)cc1)c1ncccc1C(F)(F)F)c1cccc(C(=O)c2ccccc2)c1 [Example 246, (S)-3-benzoyl-N-((4-(trifluoromethyl)phenyl)(3-(trifluoromethyl)pyridin-2-yl)methyl)benzamide 2,2,2-trifluoroacetate]
169	O=C(N[C@@H](c1ccc(C(F)(F)F)cc1)c1ncccc1C(F)(F)F)[C@@H]1CCCO1 [Example 234, (S)-N-((S)-(4-(trifluoromethyl)phenyl)(3-(trifluoromethyl)pyridin-2-yl)methyl)THF-2-carboxamide]
128	O=C(N[C@@H](c1ccc(C(F)(F)F)cc1)c1ncsc1Br)c1ccc2ncccc2c1 [Example 259, (S)-N-((5-bromothiazol-4-yl)(4-(trifluoromethyl)phenyl)methyl)quinoline-6-carboxamide 2,2,2-trifluoroacetate]
77.4	O=C(N[C@@H](c1ccc(C(F)(F)F)cc1)c1ncccc1C(F)(F)F)c1ccc2c(c1)C(=O)CC2 [Example 245, (S)-3-oxo-N-((4-(trifluoromethyl)phenyl)(3-(trifluoromethyl)pyridin-2-yl)methyl)-2,3-dihydro-1H-indene-5-carboxamide]
42.7	O=C(NC(c1ccc(Cl)c(Cl)c1)c1ccccn1)c1ccc2cnccc2c1 (centres unmarked) [Example 247, N-((3,4-dichlorophenyl)(pyridin-2-yl)methyl)isoquinoline-6-carboxamide bis-hydrochloride]
24.7	Cn1cc(C(=O)N[C@@H](c2ccc(OC(F)(F)F)cc2)c2ncccc2F)ccc1=O [Example 252, (S)-N-((3-fluoropyridin-2-yl)(4-(trifluoromethoxy)phenyl)methyl)-1-methyl-6-oxo-1,6-dihydropyridine-3-carboxamide 2,2,2-trifluoroacetate]
17.6	CCn1cc(C(=O)N[C@@H](c2ccc(OC(F)(F)F)cc2)c2ncccc2F)ccc1=O [Example 255, (S)-1-ethyl-N-((3-fluoropyridin-2-yl)(4-(trifluoromethoxy)phenyl)methyl)-6-oxo-1,6-dihydropyridine-3-carboxamide]
16	O=C(N[C@@H](c1ccc(C(F)(F)F)cc1)c1ncccc1C(F)(F)F)c1ccc2ncsc2c1 [Example 239, (S)-N-((4-(trifluoromethyl)phenyl)(3-(trifluoromethyl)pyridin-2-yl)methyl)benzo[d]thiazole-6-carboxamide]
15.9	CC1(C)C[C@H]1c1cccnc1[C@@H](NC(=O)c1ccc2cccnc2c1)c1ccc(C(F)(F)F)cc1 [Example 232, N-((S)-(3-((R)-2,2-dimethylcyclopropyl)pyridin-2-yl)(4-(trifluoromethyl)phenyl)methyl)quinoline-7-carboxamide]
11.9	O=C(N[C@@H](c1ccc(C(F)(F)F)cc1)c1ncccc1Cl)c1ccc(=O)[nH]c1 [Example 248, (S)-N-((3-chloropyridin-2-yl)(4-(trifluoromethyl)phenyl)methyl)-6-oxo-1,6-dihydropyridine-3-carboxamide 2,2,2-trifluoroacetate]
11.4	O=C(N[C@@H](c1ccc(C(F)(F)F)cc1)c1ncccc1F)c1ccc2nccn2c1 [Example 253, (S)-N-((3-fluoropyridin-2-yl)(4-(trifluoromethyl)phenyl)methyl)imidazo[1,2-a]pyridine-6-carboxamide 2,2,2-trifluoroacetate]
